# Results reported in patent publication US8188091B2, “Tetrahydroquinazoline compounds and their use in preparing medicaments for treating and preventing virosis” (Beijing Molecule Science and Technology Co., Ltd., priority 2007, dated 2012).
# Like-named read-outs stand apart in the source and are kept apart here.
# Legend:
# [1] = Determination of the cytotoxicity in HepG 2.2.15 cells (microscopy, Reed & Muench); format: cell-based; details: human, pathological changes at 8 days, read-out: TC50 (half-maximum toxic concentration)
# Experimental: (§1) The antiviral assays were carried out in 96-well microtitre plates. Only growth medium and HepG 2.2.15 cells were added to the first vertical row of the plate, as a blank control.
# (§2) Stock solutions of the test compounds (50 mM) were initially dissolved in DMSO, and further dilutions were prepared in the growth medium of HepG 2.2.15 cell. The compounds according to the present invention, usually in a test concentration of 100 μg/ml (1st test concentration), were pipetted into each well in the second vertical test row of the microtitre plate and subsequently diluted by 2 times each time, up to 2^10-fold, using the growth medium plus 2% of foetal calf serum (volume 25 p. 1).
# (§3) 225 μl of a HepG 2.2.15 cell suspension (5×10^4 cells/ml) in the growth medium plus 2% foetal calf serum were then added to each well of the microtitre plate.
# (§4) The assay mixture was incubated at 37° C., 5% CO2 for 4 days. The supernatant was subsequently siphoned off and discarded, and 225 μl of freshly prepared growth medium were added to each well. Once more, the compounds according to the present invention were added, in a volume 25 μl of solution. The mixtures were incubated for another 4 days.
# Before the supernatants were harvested for determining the antiviral effect, the HepG 2.2.15 cells were examined by an optical microscopy or by biochemical detecting methods (for example Alamar Blue staining or Trypan Blue staining) for cytotoxic changes.
# Determination of the Cytotoxicity
# Substances-induced cytotoxic or cytostatic changes in the HepG 2.2.15 cells can be determined by for example a optical microscopy and expressed as changes in the cell morphology. Such substance-induced changes, for example, as cell lysis, vacuolization or changed cell morphology in the HepG 2.2.15 cells was apparent in comparison with those in untreated cells. The pathological changes were observed under a microscope at 8 days as indice, wherein a complete destroy being designated as 4, 75% as 3, 50% as 2, 25% as 1, and no pathological change as 0. The average degree of pathological change and inhibition percentages at various concentrations were calculated, and a half-maximum toxic concentration (TC50) and a maximum non-toxic concentration TC0 were determined according to Reed & Muench methods.
# TC50 means the concentration of the compounds according to the present invention at which 50% of the cells have a morphology which is similar to that of the corresponding cell control.
# HBV DNA = assay: Antiviral activity: inhibition of HBV DNA in supernatant of HepG 2.2.15 cells (dot blot hybridization); format: cell-based, hepatitis B virus (HBV); details: for IC50: Hepatitis B virus, HepG2.2.15, 192 h, read-out: IC50 (inhibition of the compounds on HBV DNA); for SI: selectivity index, TC50/IC50, HepG 2.2.15 cells
# Experimental: The antiviral effects of the compounds according to the present invention was determined following the methods described by Sells et al. (M. A. Sells, M. L. Chen, g. Acs, Proc. Natl. Acad. Sci., 1987, 84, 1005-1009) and Korba et al., (B. E. Korba, J. L. Gerin, Antiviral Research, 1992, 19. 55-70).
# as §1, §2, §3, §4
# The supernatants were subsequently harvested and siphoned onto in vacuum 96-well dot blot chambers covered with a nylon membrane (in accordance with the instructions of the manufacturer).
# Determination of the Antiviral Activity
# After transfer of the supernatants onto the nylon membrane of the blot apparatus (see above), the supernatants of the HepG 2.2.15 cells were denatured (1.5 M NaCl/0.5 M NaOH), neutralized (3 M […]/0.5 M Tris HCl, pH 7.5) and washed (2×SSC). The DNA was subsequently baked onto the membrane By incubation of the filters at 120° C. for 2-4 hours.
# The viral DNA of the treated HepG 2.2.15 cells on the nylon filter membrane was usually detected using non-radioactive digoxigenin-labelled hepatitis B-specific DNA probes, which were in each case labelled with digoxigenin, purified and used for hybridization in accordance with the instructions of the manufacturer.
# Briefly speaking, the prehybridization and hybridization were carried out in 5×SSC, 1× a blocking agent, 0.1% N-lauroylsacosine, 0.02% SDS and 100 μg of DNA from herring sperm. The prehybridization was carried out at 60° C. for 30 minutes and the specific hybridization was carried out using 20 to 40 ng/ml of the digoxigenated denatured HBV-specific DNA (14 hours, 60° C.). The filler membrane was subsequently washed and the antibody against digoxigenin of HBV DNA was determined.
# The digoxigenin-labelled DNA was detected immunologically in accordance with the instructions of the manufacturer.
# Briefly speaking, the filler membranes were washed and prehybridized in the blocking agent (in accordance with the instructions of the manufacturer), and then hybridized for 30 minutes using an anti-DIG antibody previously coupled to an alkaline phosphatase. After washing, a substrate of alkaline phosphoesterase, CSPD, was added, incubated with the filter for 5 minutes, subsequently wrapped in a plastic film and incubated at 37° C. for a further 15 minutes. The chemiluminescene signals of the Hepatitis B-specific DNA were measured by exposition of the filters on an X-ray film (incubating for 10 minutes to 2 hours, depending on strength of the signals). The half-maximum inhibitory concentration (IC50) was determined.
# The half-maximum inhibitory concentration (IC50) means the concentration of the compound according to the present invention at which the hepatitis B-specific band was reduced by 50% in comparison with an untreated sample.
# [2] = Solubility of the hydrochloride solid in solvents; format: physicochemical
# Experimental: 0.38 g of the object compound obtained in Example 1 was dissolved in 2 ml anhydrous ethanol, to which hydrogen chloride ethyl solution was added dropwise to precipitate a solid, and filtered to obtain an off-white powdery solid 0.41 g, mp 197-199° C.
# [3] = HepG 2.2.15 cells, 8 days treatment
SMILES,CC50 at 8 days [1],IC50 (HBV DNA; [3]),SI (HBV DNA),melting point,IC50 (HBV DNA),"solubility in dichloromethane, ethyl acetate, acetone, etc. ([2]; dichloromethane, ethyl acetate, acetone, etc.)",solubility in methanol and ethanol ([2]; methanol and ethanol),solubility in water ([2]; water)
"O=C1CCCC2=C1C(c1ccccc1Cl)N=C(c1cccnc1)N2 (stereo not shown) [Example 9, 2-(pyridin-3-yl)-4-(2-chlorophenyl)-4,6,7,8-tetrahydroquinazolin-5(1H)-one]",167 µM,> 29.6 µM,<5.6,,,,,
"CC1(C)CC(=O)C2=C(C1)NC(c1ccccn1)=NC2c1ccc(F)cc1Cl (stereo not shown) [Example 12, 2-(pyridin-2-yl)-4-(2-chloro-4-fluorophenyl)-7,7-dimethyl-4,6,7,8-tetrahydroquinazolin-5(1H)-one]",97 µM,> 26 µM,<3.7,,,,,
"O=C1CCCC2=C1C(c1ccc(F)cc1)N=C(c1cccnc1)N2 (stereo not shown) [Example 8, 2-(pyridin-3-yl)-4-(4-fluorophenyl)-4,6,7,8-tetrahydroquinazolin-5(1H)-one]",148 µM,> 31.1 µM,<4.7,,,,,
"O=C1CCCC2=C1C(c1ccc(F)cc1Cl)N=C(c1cccnc1)N2 (stereo not shown) [Example 3, 2-(pyridin-3-yl)-4-(2-chloro-4-fluorophenyl)-4,6,7,8-tetrahydroquinazolin-5(1H)-one]",233 µM,25.2 µM,9.25,,,,,
"CC1(C)CC(=O)C2=C(C1)NC(c1cccnc1)=NC2c1ccccc1 (stereo not shown) [Example 5, 2-(pyridin-3-yl)-4-phenyl-7,7-dimethyl-4,6,7,8-tetrahydroquinazolin-5(1H)-one]",173 µM,22.5 µM,7.70,,,,,
"CC1(C)CC(=O)C2=C(C1)NC(c1cccnc1)=NC2c1ccc(F)cc1 (stereo not shown) [Example 4, 2-(pyridin-3-yl)-4-(4-fluorophenyl)-7,7-dimethyl-4,6,7,8-tetrahydroquinazolin-5(1H)-one]",145 µM,25.3 µM,5.73,,,,,
"CC1(C)CC(=O)C2=C(C1)NC(c1cccnc1)=NC2c1ccc(F)cc1Cl (stereo not shown) [Example 1, 2-(pyridin-3-yl)-4-(2-chloro-4-fluorophenyl)-7,7-dimethyl-4,6,7,8-tetrahydroquinazolin-5(1H)-one]",109 µM,0.026 µM,4192,186 to 187 °C,,,,
"O=C1CCCC2=C1C(c1ccc(F)cc1Cl)N=C(c1c(F)cc(F)cc1F)N2 (stereo not shown) [Example 10, 2-(2,4,6-trifluorophenyl)-4-(2-chloro-4-fluorophenyl)-4,6,7,8-tetrahydroquinazolin-5(1H)-one]",94.1 µM,> 24.4 µM,<3.8,,,,,
"O=C1CCCC2=C1C(c1ccccc1)N=C(c1cccnc1)N2 (stereo not shown) [Example 6, 2-(pyridin-3-yl)-4-phenyl-4,6,7,8-tetrahydroquinazolin-5(1H)-one]",193 µM,,<4.7,,> 32.9 µM,,,
"CC1(C)CC(=O)C2=C(C1)NC(c1c(F)cc(F)cc1F)=NC2c1ccc(F)cc1Cl (stereo not shown) [Example 11, 2-(2,4,6-trifluorophenyl)-4-(2-chloro-4-fluorophenyl)-7,7-dimethyl-4,6,7,8-tetrahydroquinazolin-5(1H)-one]",73.7 µM,> 22.9 µM,<3.2,,,,,
"CC1(C)CC(=O)C2=C(C1)NC(c1cccnc1)=NC2c1ccc(F)cc1Cl.Cl (stereo not shown) [Example 2, 2-(pyridin-3-yl)-4-(2-chloro-4-fluorophenyl)-7,7-dimethyl-4,6,7,8-tetrahydroquinazolin-5(1H)-one hydrochloride]",,,,,,insoluble,soluble slightly,very easily soluable
"CC1(C)CC(=O)C2=C(C1)NC(c1cccnc1)=NC2c1ccccc1Cl (stereo not shown) [Example 7, 2-(pyridin-3-yl)-4-(2-chlorophenyl)-7,7-dimethyl-4,6,7,8-tetrahydroquinazolin-5(1H)-one]",67.3 µM,26.2 µM,2.57,,,,,
